Source: article PMC9737391, “Trifluoromethylcinnamanilide Michael Acceptors for Treatment of Resistant Bacterial Infections” (International Journal of Molecular Sciences, 2022)
Values after ≈ are worked out from the molar mass of the structure shown. Values joined by “and” are separate entries in the source; they are usually repeats but may differ in a detail not shown here. Equal values may be shown once. Read-outs that look alike come from different tables or passages of the source.

Tests used:
[1] = tested on: vancomycin-resistant E. faecalis VRE 725B (VRE3); assay: MBC, agar aliquot subculture method; assay type: cell-based, Enterococcus faecalis
E. faecalis/VRE = assay: Anti-enterococcal activity, summary over strains; assay type: cell-based, Enterococcus faecalis
[2] = tested on: vancomycin-resistant E. faecalis VRE 368 (VRE2); assay: MBC, agar aliquot subculture method; assay type: cell-based, Enterococcus faecalis
[3] = tested on: methicillin-resistant S. aureus SA 3202 (MRSA1); assay: MBC, agar aliquot subculture method; assay type: cell-based; conditions: Staphylococcus aureus; MRSA SA 3202
S. aureus ATCC 29213 [4] = assay: MTT assay, inhibition of bacterial respiration; assay type: cell-based, Staphylococcus aureus
Excerpt: The MTT assay can be used to assess cell growth by measuring respiration. Respiratory activity of bacterial cells (which is finally reflected in their viability) less than 70% after exposure to the MIC values for each tested compound is considered as a positive result of this assay. This low level of cell oxidative metabolism indicates inhibition of cell growth by inhibition of respiration. The lowest multiples of MIC values that achieved more than 70% inhibition of S. aureus ATCC 29213 viability (%) are shown in Table 3.
The percent inhibition of respiration of S. aureus ATCC 29213 was determined through the MTT assay. The assay was performed as described recently. The percent viability is calculated through the comparison of a measured value and that of the uninhibited control: % viability = OD570E/OD570P × 100, where OD570E is the reading from the compound-exposed cells, while OD570P is the reading from the uninhibited cells (positive control). Cytotoxic potential is determined by a percent viability of <70% [46, 47].

[5] = tested on: methicillin-resistant S. aureus SA 630 (MRSA2); assay: MIC, microtitration broth method; assay type: cell-based; conditions: Staphylococcus aureus; MRSA SA 630
[6] = tested on: methicillin-resistant S. aureus SA 3202 (MRSA1); assay: MIC, microtitration broth method; assay type: cell-based; conditions: Staphylococcus aureus; MRSA SA 3202
[7] = tested on: vancomycin-resistant E. faecalis VRE 725B (VRE3); assay: MIC, microtitration broth method; assay type: cell-based, Enterococcus faecalis
[8] = tested on: M. smegmatis and M. marinum; assay: Antimycobacterial activity, summary over both strains; assay type: cell-based; conditions: average over the named compounds and strains; read-out: average MIC against M. smegmatis and M. marinum
[9] = tested on: methicillin-resistant S. aureus SA 630 (MRSA2); assay: MBC, agar aliquot subculture method; assay type: cell-based; conditions: Staphylococcus aureus; MRSA SA 630
[10] = Lipophilicity determination by RP-HPLC; assay type: physicochemical; conditions: RP-HPLC, logarithm of capacity factor k
[11] = tested on: Staphylococcus aureus ATCC 29213; assay: MIC, microtitration broth method; assay type: cell-based; conditions: ATCC29213, S. aureus ATCC 29213
[12] = tested on: methicillin-resistant S. aureus 63718 (MRSA3); assay: MBC, agar aliquot subculture method; assay type: cell-based; conditions: Staphylococcus aureus; MRSA 63718
S. aureus/MRSA [13] = assay: Antistaphylococcal activity, summary over strains; assay type: cell-based, Staphylococcus aureus
[14] = tested on: vancomycin-resistant E. faecalis VRE 342B (VRE1); assay: MIC, microtitration broth method; assay type: cell-based, Enterococcus faecalis
[15] = tested on: Enterococcus faecalis ATCC 29212; assay: MBC, agar aliquot subculture method; assay type: cell-based; conditions: ATCC29212, E. faecalis reference strain
[16] = tested on: Staphylococcus aureus ATCC 29213; assay: MBC, agar aliquot subculture method; assay type: cell-based; conditions: ATCC29213, S. aureus ATCC 29213
[17] = tested on: Enterococcus faecalis ATCC 29212; assay: MIC, microtitration broth method; assay type: cell-based; conditions: ATCC29212, E. faecalis reference strain
[18] = tested on: Mycobacterium marinum CAMP 5644; assay: In vitro antimycobacterial evaluation (MIC); assay type: cell-based
M. smegmatis ATCC 700084 = assay: In vitro antimycobacterial evaluation (MIC); assay type: cell-based, Mycobacterium smegmatis; conditions: Mycolicibacterium smegmatis, ATCC700084
[19] = tested on: vancomycin-resistant E. faecalis VRE 368 (VRE2); assay: MIC, microtitration broth method; assay type: cell-based, Enterococcus faecalis
[20] = tested on: human monocytic leukemia cell line THP-1; assay: In vitro cell viability (cytotoxicity screening); assay type: cell-based; conditions: 24 h, medium with 10% FBS, ± SD, n = 6
Description: The investigated anilides can be divided into three groups. […] Higher concentrations (than 10 or 30 µM) were not possible to evaluate due to precipitation of the tested compounds in water medium. Based on all these observations, it can be concluded that the high antimicrobial activity of 3,5-CF3-substituted compounds is associated with significant cytotoxic effect against eukaryotic cells. On the other hand, the other still effective compounds, especially agents 1j and 1o, have an insignificant toxic effect, which makes them interesting for further study.
Human monocytic leukemia THP-1 cells obtained from the European Collection of Cell Cultures (ECACC, Salisbury, UK) were used for in vitro antiproliferative assays. A recently described procedure was used.

[21] = tested on: vancomycin-resistant E. faecalis VRE 342B (VRE1); assay: MBC, agar aliquot subculture method; assay type: cell-based, Enterococcus faecalis
[22] = tested on: methicillin-resistant S. aureus 63718 (MRSA3); assay: MIC, microtitration broth method; assay type: cell-based; conditions: Staphylococcus aureus; MRSA 63718
staphylococcal biofilm = tested on: staphylococcal biofilm; design: method as in ref 26, 51 = [26]; PMID 30087309; doi:10.3390/ijms19082318; 26. Pospisilova S. Kos J. Michnova H. Kapustikova I. Strharsky T. Oravec M. Moricz A.M. Bakonyi J. Kauerova T. Kollar P. Synthesis and spectrum of biological activities of novel N -arylcinnamamides In || [51]; 51. Pospisilova S. Kos J. Michnova H. Strharsky T. Cizek A. Jampilek J. N -Arylcinnamamides as antistaphylococcal agents Proceedings of the 4th International Electronic Conference on Medicinal Chemist; conditions: cited from earlier work
M. tuberculosis H37Ra = tested on: M. tuberculosis H37Ra; design: method as in ref 26 = [26]; PMID 30087309; doi:10.3390/ijms19082318; 26. Pospisilova S. Kos J. Michnova H. Kapustikova I. Strharsky T. Oravec M. Moricz A.M. Bakonyi J. Kauerova T. Kollar P. Synthesis and spectrum of biological activities of novel N -arylcinnamamides In; conditions: average over the named compounds; cited from earlier work
S. aureus/MRSA [23] = tested on: S. aureus/MRSA; design: method as in ref 26, 51 = [26]; PMID 30087309; doi:10.3390/ijms19082318; 26. Pospisilova S. Kos J. Michnova H. Kapustikova I. Strharsky T. Oravec M. Moricz A.M. Bakonyi J. Kauerova T. Kollar P. Synthesis and spectrum of biological activities of novel N -arylcinnamamides In || [51]; 51. Pospisilova S. Kos J. Michnova H. Strharsky T. Cizek A. Jampilek J. N -Arylcinnamamides as antistaphylococcal agents Proceedings of the 4th International Electronic Conference on Medicinal Chemist; conditions: cited from earlier work
MRSA = tested on: MRSA; design: method as in ref 26, 51 = [26]; PMID 30087309; doi:10.3390/ijms19082318; 26. Pospisilova S. Kos J. Michnova H. Kapustikova I. Strharsky T. Oravec M. Moricz A.M. Bakonyi J. Kauerova T. Kollar P. Synthesis and spectrum of biological activities of novel N -arylcinnamamides In || [51]; 51. Pospisilova S. Kos J. Michnova H. Strharsky T. Cizek A. Jampilek J. N -Arylcinnamamides as antistaphylococcal agents Proceedings of the 4th International Electronic Conference on Medicinal Chemist; conditions: against MRSA; cited from earlier work
M. tuberculosis = tested on: M. tuberculosis; design: method as in ref 26 = [26]; PMID 30087309; doi:10.3390/ijms19082318; 26. Pospisilova S. Kos J. Michnova H. Kapustikova I. Strharsky T. Oravec M. Moricz A.M. Bakonyi J. Kauerova T. Kollar P. Synthesis and spectrum of biological activities of novel N -arylcinnamamides In; conditions: MTT, at MIC values; cited from earlier work
S. aureus ATCC 29213 [24] = conditions: MTT, cited from earlier work
[25] = tested on: Plasmodium falciparum 3D7; design: method as in PMID 36431900; conditions: read-out: IC50 against Plasmodium falciparum 3D7; cited from earlier work
NF-κB = tested on: NF-κB; design: method as in PMID 31835703; conditions: compared with prednisone; cited from earlier work

Compound: O=C(/C=C/c1ccc(C(F)(F)F)cc1)Nc1cc(C(F)(F)F)cc(C(F)(F)F)c1 [2p, (2E)-N-[3,5-bis(Trifluoromethyl)phenyl]-3-[4-(trifluoromethyl)phenyl]prop-2-enamide]
- MBC [1]: 2.34 µM (≈ 1 µg/mL)
- MIC (E. faecalis/VRE; Enterococcus faecalis, VRE, average over the named compounds and strains, read-out: average MIC against E. faecalis/VRE): ~15 µM (≈ 6.41 µg/mL)
- anti-enterococcal MICs/MBCs (E. faecalis/VRE; range over E. faecalis and VRE isolates and over the named compounds): 2.34 to 44.5 µM
- MBC [2]: 9.36 µM (≈ 4 µg/mL)
- MBC [3]: 0.585 µM (≈ 0.25 µg/mL)
- Conc.: lowest multiple of MIC with at least 70% inhibition of respiratory activity (S. aureus ATCC 29213 [4]): 2× MIC (2× MBC)
- Conc.: the same concentration as multiple of MBC (S. aureus ATCC 29213 [4]): 2× MIC (2× MBC)
- MIC [5]: 0.293 µM (≈ 0.125 µg/mL)
- MIC [6]: 0.585 µM (≈ 0.25 µg/mL)
- MIC [7]: 2.34 µM (≈ 1 µg/mL)
- MIC [8]: ~4.1 µM (≈ 1.75 µg/mL)
- MBC [9]: 0.585 µM (≈ 0.25 µg/mL)
- log k [10]: 1.3665
- MIC [11]: 0.146 µM (≈ 0.0624 µg/mL)
- MBC [12]: 0.293 µM (≈ 0.125 µg/mL)
- MIC (S. aureus/MRSA [13]; Staphylococcus aureus, MRSA, average over the named compounds and strains, read-out: average MIC against S. aureus/MRSA): ~1.4 µM (≈ 0.598 µg/mL)
- antistaphylococcal MICs/MBCs (S. aureus/MRSA [13]; range over S. aureus and MRSA isolates and over the named compounds): 0.15 to 5.57 µM and 0.146 to 5.57 µM
- MIC [14]: 2.34 µM (≈ 1 µg/mL)
- MBC [15]: 4.68 µM (≈ 2 µg/mL)
- MBC [16]: 0.146 µM (≈ 0.0624 µg/mL)
- MIC [17]: 2.34 µM (≈ 1 µg/mL)
- MIC MM ([18]; M. marinum CAMP 5644): 0.293 – µM
- MIC ([18]; Mycobacterium marinum, CAMP5644, M. marinum CAMP 5644): 0.29 to 22.2 µM (≈ 0.124 to 9.49 µg/mL)
- MIC (M. smegmatis ATCC 700084): 1.17 µM (≈ 0.5 µg/mL)
- melting point: 207 to 209 °C
- MIC [19]: 4.68 µM (≈ 2 µg/mL)
- IC50 [20]: 8.9 ± 1.3 µM
- MBC [21]: 4.68 µM (≈ 2 µg/mL)
- MIC [22]: 0.293 µM (≈ 0.125 µg/mL)

Compound: O=C(/C=C/c1ccccc1)Nc1cccc(C(F)(F)F)c1 [3a]
- effect on staphylococcal biofilm (staphylococcal biofilm): ability to inhibit the growth of staphylococcal biofilm and disrupted mature biofilm in concentrations close to MICs
- average MIC against M. tuberculosis H37Ra (M. tuberculosis H37Ra): ~ 24 µM
- bactericidal effect (S. aureus/MRSA [23]): bactericidal effect in concentrations close to MICs

Compound: O=C(/C=C/c1ccccc1)Nc1cc(C(F)(F)F)cc(C(F)(F)F)c1 [3b]
- effect on staphylococcal biofilm (staphylococcal biofilm): ability to inhibit the growth of staphylococcal biofilm and disrupted mature biofilm in concentrations close to MICs
- average MIC against M. tuberculosis H37Ra (M. tuberculosis H37Ra): ~ 24 µM
- effect in combination with ciprofloxacin (MRSA): synergistic effect
- effect in combination with tetracycline (MRSA): synergistic effect
- effect in combination with vancomycin (MRSA): additivity
- bactericidal effect (S. aureus/MRSA [23]): bactericidal effect in concentrations close to MICs
- inhibition of M. tuberculosis respiration (M. tuberculosis): 77%

Compound: O=C(/C=C/c1ccccc1)Nc1ccc(C(F)(F)F)c(F)c1 [3c]
- inhibition of S. aureus respiration (S. aureus ATCC 29213 [24]; at MIC value): 86%

Compound: O=C(/C=C/c1ccccc1)Nc1cc(Cl)cc(Cl)c1 [3d]
- average MIC against M. tuberculosis H37Ra (M. tuberculosis H37Ra): ~ 24 µM
- inhibition of M. tuberculosis respiration (M. tuberculosis): 77%

Compound: O=C(/C=C/c1ccccc1)Nc1ccc(Br)cc1Cl [3f]
- IC50 [25]: 0.58 µM

Compound: O=C(/C=C/c1ccccc1)Nc1cc(C(F)(F)F)ccc1Cl [3g]
- anti-inflammatory potential (NF-κB inhibition) (NF-κB): comparable to that prednisone

Compound: O=C(/C=C/c1ccc(Cl)c(Cl)c1)Nc1cc(C(F)(F)F)cc(C(F)(F)F)c1 [4f]
- inhibition of S. aureus respiration (S. aureus ATCC 29213 [24]; at 0.25× MIC): 96%
